These are literature values, as cited in patent US5874549A, “Acid-cleavable compound” (NeoRx Corporation, priority 1993, dated 1999).

Each structure is given as a SMILES string.

For the series the following is noted: relative to Cpd 1 = 1.

For the molecule `CC(C)(C)NC(=O)/C=C\C(=O)O` [Cpd 12], the “Relative Rate (hydrolysis of the amide group)” value (“Relative Rate” for short) is 2.6.

On to `O=C(O)/C=C\C(=O)Nc1ccccc1` [Cpd 13], for which the “Relative Rate” value is 4.5.

Take `CC(C)NC(=O)/C=C\C(=O)O` [Cpd 11]: the “Relative Rate” value was 0.7.

With `CCCNC(=O)/C(C)=C(/C)C(=O)O` [Cpd 6], the “Relative Rate” value is on record as 2.35 × 10^4.

As to `CNC(=O)/C=C(\C(=O)O)C(C)(C)C` [Cpd 5], the “Relative Rate” value is reported as 68.0.

With `C=CC(=O)NC` [N-methyl acrylamide], the “Relative Rate” value is reported as ~1.4 × 10^-7.

Consider `CNC(=O)C1=C(C(=O)O)CC1` [Cpd 9], for which the “Relative Rate” value is listed as 4.2 × 10^-6.

For the molecule `CNC(=O)C1=C(C(=O)O)CCCC1` [Cpd 7], the “Relative Rate” value was 540.

As for `CNC(=O)/C=C(\C(=O)O)C(C)C` [Cpd 4], the “Relative Rate” value is 44.5.

On to `CNC(=O)c1ccccc1C(=O)O` [Cpd 10], for which the “Relative Rate” value is 0.72.

As to `CN(C)C(=O)/C=C\C(=O)O` [Cpd 14], the “Relative Rate” value was 42.7.

In the case of `CNC(=O)/C=C(/C)C(=O)O` [Cpd 2], the “Relative Rate” value was 31.2.

Turning to `CNC(=O)/C=C\C(=O)O` [Cpd 1], the “Relative Rate” value is 1.

`CC/C(=C/C(=O)NC)C(=O)O` [Cpd 3]: the “Relative Rate” value is listed as 32.8.

As to `CNC(=O)C1=C(C(=O)O)CCC1` [Cpd 8], the “Relative Rate” value is 4.2 × 10^-5.
